One block for each substance: values may come before it.
Key:
Format in all cases: biochemical
[1] = Inhibition of [α-32P]UTP incorporation by 3′-dATP in the transcription reaction (3′-dNTP incorporation rate); details: compared with wild type T7 RNA polymerase
Protocol: Ribonucleotide (NTP) and 3′-deoxynucleotide (3′-dNTP) incorporation rates of the mutant T7 RNA polymerase purified in Example 7 were measured as follows.
pBluescript(KS+) plasmid (Stratagene) linearized by reaction with a restriction endonuclease, PvuII, was used as a template for the transcription reaction, and 250 μM each of ATP, CTP, GTP, and UTP, 2 mM of spermidine-(HCl)3, 5 mM of DTT, 40 mM Tris/HCl pH 8.0, 0.1 μl of [α-^32P] UTP (3000 Ci/mmole), and 25 units of the mutant T7 RNA polymerase F644Y/L665P/F667Y were also used for the reaction. For two kinds of reaction mixture (with or without 3′-dATP, final concentration was 100 μM), the reaction was performed at 37° C. for 60 minutes. The whole reaction mixture was spotted on DE81 paper (Whatman), washed three times with phosphate buffer, and dried. The DE81 paper was placed into a scintillation vial, and radioactivity was measured using a scintillation counter (Beckman) for each reaction. Degree of inhibition of the [α-^32P] UTP incorporation was calculated by comparing the values obtained with and without 3′-dATP based on the measured radioactivity. The relative activity obtained from calculated inhibition degree and defined as a relative value to the inhibition degree of the wild type T7 RNA polymerase normalized to 1.000 was shown in Table 1.
The inhibition degree was calculated by using the wild type T7 RNA polymerase, T7 RNA polymerase F644Y, L665P/F667Y obtained in Example 3, mutant T7 RNA polymerase F644Y/L665P, F782Y, F733Y, F646Y or Y639F constructed and purified in the same manner as in Examples 2 and 3 for the reaction instead of the above F644Y/L665P/F667Y mutant, and relative activities are shown in Table 1.
For example, it is meant that the mutant T7 RNA polymerase F644Y/L665P/F667Y is 5.58 times more likely to incorporate 31-dATP in comparison with the wild type enzyme.

[2] = In vitro transcription with a single dye terminator, sequence ladder analysed on ABI 377 (Example 4); details: for incorporation efficiency for 3′-dCTP derivatives / peak intensities of the sequence ladders: compared with wild type; for peak intensities of the sequence ladders: FIG. 14 and FIG. 15
Protocol: 3′ -DNTP incorporation efficiency of the purified mutant T7 RNA polymerases F644Y and L665P/F667Y was compared with that of wild type T7 RNA polymerase as follows. In vitro transcription reaction was performed by, for example, a partially modified version of the method of Melton, D. A, [Nucleic Acids Res., 12:7035-7056 (1984)]. More specifically, the reaction was performed in a total volume of 10 μl containing a plasmid vector pBluescriptKS(+) having T7 promoter (Stratagene) linearized by the reaction with a restriction endonuclease PvuII or ScaI as a template, 150 μM of 5-carboxy-X-rhodamine-labeled 3′-deoxycytidine-5′-triphosphate which was a dye terminator prepared according to the method described in WO96/14434 as a derivative of 3′-dNTP, 500 μM of GTP and UTP, 250 μM of ATP and CTP, 8 mM Of MgCl2, 2 mM of spermidine-(HCl)3, 5 mM of DTT, 40 mM of Tris/HCl pH 8.0 (BRL, Gibco) and 25 units of wild type T7 RNA polymerase (BRL, Gibco or Nippon Gene) or the mutant T7 RNA polymerase F644Y or L665P/F667Y at 37° C. for 1 hour. Then, to remove the unreacted dye terminator remained in the reaction product, the transcription product was purified by gel filtration using Sephadex G-50 column (Pharmacia Biotec), and the purification product was evaporated to dryness using a centrifugal evaporator.
(§1) The dried reaction product was dissolved in 6 μl of formamide/EDTA/Blue dextran loading buffer according to the instruction manual Ver. 1.0 of ABI PRISM 377 DNA Sequencing System available from Perkin-Elmer Japan, and 2 μl of the solution was analyzed by ABI 377 DNA Sequencer and an analysis program using denatured gel for sequencing analysis which contained 6M urea/4% Long Ranger™ acrylamide solution (FMC).
The peak intensities of the sequence ladders obtained by using F644Y and L665P/F667Y are shown in FIG. 14 and FIG. 15 with the peak intensity obtained by using wild type T7 RNA polymerase.

[3] = system: plasmid vector pBluescriptKS(+) having T7 promoter; assay: Sequencing reaction by the dye terminator method, linearized pBluescriptKS(+) template (Example 5); details: four dye terminators; for sequence reading: 37° C., 1 hour, ABI 377; for peak intensity in sequencing reaction: in comparison with wild type T7 RNA polymerase
Protocol: Sequencing reaction by the dye terminator method was performed utilizing the purified mutant T7 RNA polymerases F644Y and L665P/F667Y, and the wild type T7 RNA polymerase as follows for comparison.
For the in vitro transcription reaction, the method of Melton, D. A. (1984, Nucleic Acids Res., 12:7035-7056) exemplified in Example 4 was used. More specifically, the reaction was performed in a total reaction volume of 10 μl containing a plasmid vector pBluescriptKS (+) having T7 promoter linearized by the reaction with a restriction endonuclease PvuII or ScaI as a template, 5-carboxyrhodamine 6G-labeled 3′-deoxyadenosine-5′-triphosphate, 5-carboxyrhodamine 110-labeled 3′-deoxyguanosine-5′-triphosphate, 5-carboxy-X-rhodamine-labeled 3′-deoxycytidine-5′-triphosphate, and 5-carboxytetramethylrhodamine-labeled 3′-deoxyuridine-5′triphosphate, which were dye terminators prepared according to the method described in W096/14434 as derivatives of 3′-DNTP, 500 μM of GTP and UTP, 250 μM of ATP and CTP, 8 mM of MgCl2, 2 mM of spermidine-(HCl)3, 5 mM of DTT, 40 mM of Tris/HCl pH 8.0 (BRL, Gibco) and 25 units of wild type T7 RNA polymerase (BRL, Gibco or Nippon Gene) or the mutant T7 RNA polymerase F644Y at 37° C. for 1 hour. Then, to remove the unreacted dye terminators remained in the reaction product, the transcription product was purified by gel filtration using Sephadex G-50 column (Pharmacia Biotec), and the purification product was evaporated to dryness using a centrifugal evaporator.
as §1

[4] = system: DNA containing T7 promoter; assay: In vitro RNA synthesis activity (enzyme dilution method, plasmid containing T7 promoter as template); details: compared with wild type T7 RNA polymerase
Source text: The T7 RNA polymerases introduced with mutations were purified, and their abilities of promoter sequence specific RNA synthesis and incorporation of ribonucleoside 5′-triphosphates including ATP, GTP, CTP, UTP and derivatives thereof, as well as 3′-dATP, 3′-dGTP, 3′-dCTP, 3′-dUTP and derivatives thereof were compared with those of wild type T7 RNA polymerase.
All of the mutant T7 RNA polymerases can be purified by principally the same method. The difference of mutation site may cause some difference in the expression level, and behavior in column chromatography. The purification method of mutant T7 RNA polymerase F644Y is exemplified hereinafter. The expression vector pT7RF644Y for F644Y was introduced into E. coli DH5∝, and the cells were cultured in a test tube containing LB culture medium containing antibiotic ampicillin. When the OD (600 nm) of the medium reached 0.4-0.6, isopropyl-β-thiogalactopyranoside (IPTG) was added to the culture to a final concentration of 0.4 mM, and the cultivation was further continued for additional 8 hours. Then, the E. coli cells were collected by centrifugation. Typically, 2 liters of culture medium affords 10 g of E. coli cells in wet weight. If the E. coli cells are not used immediately, they can be stored in a refrigerator at −20° C. Subsequent steps for purification of enzyme should be performed at a temperature lower than room temperature, preferably 0-5° C. unless otherwise indicated. The E. coli cells were washed with 10 times relative to the cell weight of a washing buffer (20 mM Tris-HCl, pH 8.1, 130 mM NaCl, 2 mM EDTANa2 at 25° C.), centrifuged again [5,000×g, 4° C., 10 minutes), suspended in 10 times in volume of a sonication buffer (50 mM Tris-HCl, pH 8.1, 100 mM NaCl, 0.1 mM EDTANa2, 5 mM dithiothreitol (DTT), 0.1 mM benzamidine, 30 μg/ml phenylmethylsulfonyl fluoride (PMSF), 10 μg/ml bacitracin], and sonicated by using Sonifier 450 (Branson) at 80W for more than 15 minutes to destroy the cells and reduce the viscosity of the cells. […]

Substance: F782Y: T7 RNA polymerase in which F782 was replaced with Y
ability for incorporating 3′-dATP, 3′-dGTP, 3′-dCTP, 3′-dUTP and derivatives thereof [1]: slightly improved

Substance: F667Y: T7 RNA polymerase in which F667 was replaced with Y
ability for incorporating 3′-dATP, 3′-dGTP, 3′-dCTP, 3′-dUTP and derivatives thereof [1]: comparable to that of the L665P/F667Y mutant

Substance: L665P/F667Y: mutant T7 RNA polymerase with L665P and F667Y mutations
ability for incorporating 3′-dATP, 3′-dGTP, 3′-dCTP, 3′-dUTP and derivatives thereof [1]: markedly improved
incorporation efficiency for 3′-dCTP derivatives [2]: improved
peak intensities of the sequence ladders [2]: less fluctuation in comparison with the wild type, and the peak showed stronger signals
sequence reading [3]: possible
peak intensity in sequencing reaction [3]: higher peak intensity with less fluctuation

RNA synthesis activity [4]: slightly decreased
Substance: F733Y: T7 RNA polymerase in which F733 was replaced with Y
ability for incorporating 3′-dATP, 3′-dGTP, 3′-dCTP, 3′-dUTP and derivatives thereof [1]: slightly improved

Substance: F644Y/F667Y: mutant T7 RNA polymerase with F644Y and F667Y mutations
ability for incorporating 3′-dATP, 3′-dGTP, 3′-dCTP, 3′-dUTP and derivatives thereof [1]: almost equal to that of the F644Y/L665P/F667Y mutant

length of sequence ladder relative to that afforded by the wild type T7 RNA polymerase ([2]; 150 μM dye terminator, 37° C., 1 hour, gel image FIG. 13): 3 times
Substance: F644Y: T7 RNA polymerase in which F (phenylalanine) 644 was replaced with Y (tyrosine)
ability for incorporating 3′-dATP, 3′-dGTP, 3′-dCTP, 3′-dUTP and derivatives thereof [1]: markedly improved
length of transcription product confirmed ([2]; 150 μM dye terminator, 37° C., 1 hour): about 700 bases
incorporation efficiency for 3′-dCTP derivatives [2]: improved
peak intensities of the sequence ladders [2]: less fluctuation in comparison with the wild type, and the peak showed stronger signals
sequence reading [3]: possible
peak intensity in sequencing reaction [3]: higher peak intensity with less fluctuation

RNA synthesis activity [4]: markedly decreased
Substance: F882Y: T7 RNA polymerase in which F882 was replaced with Y

Substance: Wild type: wild type T7 RNA polymerase, 883 amino acid residues, purified from E. coli harboring pT7R or commercially available [reference compound]
RNA synthesis activity [4]: exhibited sufficient RNA synthesis activity
sequence reading ([3]; listed as wild type T7RNA polymerase (WT)): could not be correctly performed

From patent US6867027B1, “RNA polymerase” (The Institute of Physical and Chemical Research, priority 1997, dated 2005)
